# Results reported in patent US20260242478A1, “ANTIBODIES FOR TARGETING PSMA AND CD28 AND USES THEREOF” (Janux Therapeutics, Inc., priority 2023, published 2026).
# Test system: anti-CD28 scFv
# Assay: Panning ELISA of clonal phage, anti-CD28 scFv, with or without CD28 soluble protein (Peptide-9 library)
# Assay type: binding
# Settings: Peptide-9 library, background (no anti-CD28 scFv)
# Method: Clonal phage were harvested as crude supernatants and screened via standard enzyme linked immunosorbent assays (ELISAs). […] Prior to the addition of clonal phage, wells were incubated with blocking buffer and CD28 soluble protein or blocking buffer alone. Without washing or aspirating, clonal phage supernatants were then added to the wells and incubated for a short time. Wells were then washed followed by detection of bound phage using a horse radish peroxidase conjugated anti-M13 antibody. Clonal phage of interest were then sent for sequence analysis.
# anti-CD28 scFv, sequence (as listed by the source): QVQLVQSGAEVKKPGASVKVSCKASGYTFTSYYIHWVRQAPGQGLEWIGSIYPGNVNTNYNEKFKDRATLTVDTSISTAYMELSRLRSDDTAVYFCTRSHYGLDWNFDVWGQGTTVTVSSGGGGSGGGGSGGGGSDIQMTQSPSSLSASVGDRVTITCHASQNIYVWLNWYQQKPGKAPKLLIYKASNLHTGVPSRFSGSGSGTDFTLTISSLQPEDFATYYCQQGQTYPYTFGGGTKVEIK
row,Substance,Background signal
1,Phage-400 (MHWCPTYMWSECFA),0.070
2,Phage-401 (MDWCPLDMWVLCFA),0.085
3,Phage-402 (MDWCPRHMWHECFH),0.067
4,Phage-403 (MSWCPWDMWNECFA),0.069
5,Phage-404 (MDWCPRDMWTSCFN),"0,100"
6,Phage-405 (MDWCPMSMWAFCFD),0.102
7,Phage-406 (MNWCPIDMWTECFN),0.245
8,Phage-407 (MNWCPIHMWNQCFA),0.085
9,Phage-408 (MFWCPKDMWAECFA),0.099
10,Phage-409 (LHWCPITMWTYCYY),0.229
11,Phage-410 (IDWCPRYMWHECFF),0.098
12,Phage-411 (MSWCPRFMWHECFN),0.081
13,Phage-412 (QHWCPRDMWNDCYA),0.066
14,Phage-413 (MDWCPSDMWSNCFN),0.070
15,Phage-414 (LYWCPRDMWAYCYS),0.068
16,Phage-415 (MDWCPMYMWHKCFH),0.099
17,Phage-417 (IYWCPTAMWNRCSA),0.086

# Same assay, conditions: background (no anti-CD28 scFv)
row,Substance,Background signal
1,Phage-309 (MDWCPMFLWHECFN),0.170
2,Phage-310 (MDWCPRDLWDECFN),0.066
3,Phage-311 (MDWCPRDLWYQCFN),0.069
4,Phage-313 (MDWCPRSLWNYCFN),0.076
5,Phage-314 (MDWCPIHLWNECFN),0.074
6,Phage-315 (MDWCPTYLWHVCFS),0.089
7,Phage-316 (MDWCPRSLWNYCFA),0.067
8,Phage-317 (MDWCPRHLWHECFT),0.103
9,Phage-318 (MDWCPMFLWDECFN),0.132
10,Phage-319 (MSWCPRDLWHLCFF),0.077
11,Phage-320 (MDWCPTYLWNECFN),0.120
12,Phage-321 (MDWCPRDLWYVCFA),0.095
13,Phage-322 (MDWCPRHLWIECFN),0.339
14,Phage-323 (MDWCPTYLWNVCFA),0.085
15,Phage-324 (MDWCPRHLWYECFS),0.216
16,Phage-325 (MDWCPAYLWDECFA),0.096
17,Phage-326 (MFWCPITLWNECFN),0.075
18,Phage-327 (MHWCPRDLWHVCFN),0.071
19,Phage-328 (MDWCPRALWDHCFN),0.323
20,Phage-329 (MDWCPRALWNVCFA),0.071
21,Phage-330 (MDWCPRFLWDVCFN),0.100

row,Substance,Background signal
1,Phage-331 (MDWCPRHLWDECFY),0.098
2,Phage-332 (IDWCPRALWDACLA),0.269
3,Phage-333 (MDWCPTDLWHECFA),0.078
4,Phage-334 (MDWCPRYLWDECFS),0.069
5,Phage-335 (MDWCPRFLWDYCFA),0.146
6,Phage-336 (MDWCPRDLWNWCFN),0.139
7,Phage-337 (MDWCPKPLWHVCFA),0.069
8,Phage-338 (MDWCPRFLWNECFY),0.143
9,Phage-339 (MDWCPRTLWDQCFF),0.088
10,Phage-340 (MSWCPIDLWSECFA),0.072
11,Phage-341 (MDWCPRHLWDECFN),0.084
12,Phage-342 (MDWCPRNLWHECFA),0.067
13,Phage-343 (MDWCPRDLWTQCFF),0.065
14,Phage-344 (MDWCPRHLWVHCFS),0.096
15,Phage-345 (MDFCPRFLWHECFN),0.063
16,Phage-346 (MDWCPRHLWHACFS),0.073
17,Phage-347 (MDWCPLFLWDQCFN),0.116
18,Phage-348 (MAWCPWYLWDECFN),0.200
19,Phage-349 (LDWCPRHLWALCFN),0.073
20,Phage-350 (MDWCPWFLWNECFN),0.158
21,Phage-351 (MDWCPMNLWHECFA),0.080

row,Substance,Background signal
1,Phage-352 (MDWCPIHLWYECFN),0.080
2,Phage-353 (IDWCPLHLWHECYH),0.067
3,Phage-354 (MDWCPRYLWLECFN),0.083
4,Phage-356 (MDWCPMYLWDECFF),0.082
5,Phage-357 (MDWCPRLLWHECFN),0.071
6,Phage-359 (MDWCPRPLWHECFA),0.063
7,Phage-360 (MDWCPMFLWHECFS),0.092
8,Phage-361 (MHWCPRHLWSECFN),0.165
9,Phage-362 (MDWCPRILWHECFS),0.064
10,Phage-363 (MNWCPMHLWAECFN),0.087
11,Phage-364 (MDWCPRSLWAQCFY),0.067
12,Phage-365 (MDWCPSYLWPVCFN),0.079
13,Phage-366 (MHWCPLYLWDECFY),0.153
14,Phage-367 (MDWCPSFLWYECFN),0.063
15,Phage-368 (MSWCPPYLWTVCYN),0.176
16,Phage-369 (MHWCPRDLWYECFA),0.072
17,Phage-370 (MTWCPAYLWHECFN),0.086
18,Phage-371 (MAWCPRYLWAECFF),0.510
19,Phage-372 (MDWCPRYLWVDCFA),0.095
20,Phage-373 (MDWCPRILWSDCFN),0.082
21,Phage-374 (MAWCPLDLWDKCFY),0.079

row,Substance,Background signal
1,Phage-375 (MNWCPRALWHECFL),0.085
2,Phage-376 (MDWCPRHLWTYCFH),0.109
3,Phage-377 (MDWCPFDLWLECFN),0.087
4,Phage-378 (MHWCPLHLWNECFA),0.065
5,Phage-379 (MDWCPRNLWAECFS),0.061
6,Phage-380 (MDYCPSYLWHECFA),0.065
7,Phage-381 (MAWCPRILWHQCFN),0.113
8,Phage-382 (ITWCPTSLWNRCLV),0.077
9,Phage-383 (LAGCQRDLATVCVI),0.068
10,Phage-384 (IMWCPTSLWNRCVT),0.104
11,Phage-386 (NHWCPTTLWNRCVA),0.293
12,Phage-387 (MDWCPRHLWLECFN),0.064
13,Phage-388 (MDWCPRFMWNFCFF),2.200
14,Phage-391 (MDWCPFDMWADCFF),0.063
15,Phage-393 (MDWCPRDMWFECFN),0.069
16,Phage-394 (MDWCPRYMWSDCFF),0.082
17,Phage-395 (MDWCPKDMWAECFN),0.083
18,Phage-396 (TDWCPRDMWYLCFN),0.082
19,Phage-397 (MDWCPRAMWDYCFY),0.123
20,Phage-398 (MDWCPRNMWNECFF),0.095
21,Phage-399 (MDWCPRSMWDSCFN),0.332
